Measurements as given in ChEMBL document CHEMBL3885881, “DrugMatrix”.

Species: Rattus norvegicus
Assay: DrugMatrix - Regimen: Daily Repeat
Type: toxicity, organism-based, Sprague-Dawley
Design: regimen Daily Repeat, gender Male, age 6-8 weeks
Conditions: in vivo, po, route oral GAVAGE, vehicle .5 % CMC; for BASOPHIL / EOSINOPHIL / ERYTHROCYTE COUNT / HEMATOCRIT / LEUKOCYTE COUNT / LYMPHOCYTE / MEAN CORPUSCULAR HEMOGLOBIN / MEAN CORPUSCULAR HEMOGLOBIN CONCENTRATION / MEAN CORPUSCULAR VOLUME / MONOCYTE / NEUTROPHIL / PLATELET COUNT: tissue Blood; for ALANINE AMINOTRANSFERASE / ALBUMIN / ALKALINE PHOSPHATASE / ASPARTATE AMINOTRANSFERASE / BLOOD UREA NITROGEN / CHLORIDE / CHOLESTEROL / CREATINE PHOSPHOKINASE / CREATININE / GLUCOSE / PHOSPHORUS / POTASSIUM / SODIUM / TOTAL BILIRUBIN / TOTAL PROTEIN: tissue Plasma
[1] = 0 mg/kg, 72 h, dose level Control, time 3 day
[2] = 0 mg/kg, 120 h, dose level Control, time 5 day
[3] = 3 mg/kg, 72 h, dose level Low, time 3 day
[4] = 3 mg/kg, 120 h, dose level Low, time 5 day

NCCCC(O)(P(=O)(O)O)P(=O)(O)O [ALENDRONIC ACID]
BASOPHIL [1]: 0% | EOSINOPHIL [1]: 0% | ERYTHROCYTE COUNT [1]: 6.19 x10E6/uL | HEMATOCRIT [1]: 36.94% | LEUKOCYTE COUNT [1]: 11.54 x10E3/uL | LYMPHOCYTE [1]: 84.8% | MEAN CORPUSCULAR HEMOGLOBIN [1]: 23.58 pg | MEAN CORPUSCULAR HEMOGLOBIN CONCENTRATION [1]: 39.44 G/DL | MEAN CORPUSCULAR VOLUME [1]: 59.76 fL | MONOCYTE [1]: 1.4% | NEUTROPHIL [1]: 13.8% | PLATELET COUNT [1]: 1068.8 x10E3/uL | ALANINE AMINOTRANSFERASE [1]: 38.17 u/L | ALBUMIN [1]: 3.88 G/DL | ALKALINE PHOSPHATASE [1]: 391.33 u/L | ASPARTATE AMINOTRANSFERASE [1]: 69.83 u/L | BLOOD UREA NITROGEN [1]: 15 mg/dL | CHLORIDE [1]: 104.17 MEQ/L | CHOLESTEROL [1]: 72.17 mg/dL | CREATINE PHOSPHOKINASE [1]: 174.33 u/L | CREATININE [1]: 0.58 mg/dL | GLUCOSE [1]: 192.67 mg/dL | PHOSPHORUS [1]: 10.52 mg/dL | POTASSIUM [1]: 6.8 MEQ/L | SODIUM [1]: 149.67 MEQ/L | TOTAL BILIRUBIN [1]: 0.78 mg/dL | TOTAL PROTEIN [1]: 6.28 G/DL | BASOPHIL [2]: 0% | EOSINOPHIL [2]: 0.17% | ERYTHROCYTE COUNT [2]: 6.72 x10E6/uL | HEMATOCRIT [2]: 40.02% | LEUKOCYTE COUNT [2]: 9.5 x10E3/uL | LYMPHOCYTE [2]: 87.17% | MEAN CORPUSCULAR HEMOGLOBIN [2]: 23.57 pg | MEAN CORPUSCULAR HEMOGLOBIN CONCENTRATION [2]: 39.62 G/DL | MEAN CORPUSCULAR VOLUME [2]: 59.55 fL | MONOCYTE [2]: 1.67% | NEUTROPHIL [2]: 11% | PLATELET COUNT [2]: 1053.67 x10E3/uL | ALANINE AMINOTRANSFERASE [2]: 26.33 u/L | ALBUMIN [2]: 4.02 G/DL | ALKALINE PHOSPHATASE [2]: 316.67 u/L | ASPARTATE AMINOTRANSFERASE [2]: 61.33 u/L | BLOOD UREA NITROGEN [2]: 18.67 mg/dL | CHLORIDE [2]: 108 MEQ/L | CHOLESTEROL [2]: 65.17 mg/dL | CREATINE PHOSPHOKINASE [2]: 161.17 u/L | CREATININE [2]: 0.75 mg/dL | GLUCOSE [2]: 177.33 mg/dL | PHOSPHORUS [2]: 9.72 mg/dL | POTASSIUM [2]: 6.18 MEQ/L | SODIUM [2]: 150.5 MEQ/L | TOTAL BILIRUBIN [2]: 0.68 mg/dL | TOTAL PROTEIN [2]: 6.55 G/DL | BASOPHIL [3]: 0% | EOSINOPHIL [3]: 0% | ERYTHROCYTE COUNT [3]: 5.67 x10E6/uL | HEMATOCRIT [3]: 34.63% | LEUKOCYTE COUNT [3]: 9.73 x10E3/uL | LYMPHOCYTE [3]: 86.33% | MEAN CORPUSCULAR HEMOGLOBIN [3]: 24.23 pg | MEAN CORPUSCULAR HEMOGLOBIN CONCENTRATION [3]: 39.67 G/DL | MEAN CORPUSCULAR VOLUME [3]: 61.13 fL | MONOCYTE [3]: 1.33% | NEUTROPHIL [3]: 12.33% | PLATELET COUNT [3]: 1035.67 x10E3/uL | ALANINE AMINOTRANSFERASE [3]: 34 u/L | ALBUMIN [3]: 3.77 G/DL | ALKALINE PHOSPHATASE [3]: 322.33 u/L | ASPARTATE AMINOTRANSFERASE [3]: 69 u/L | BLOOD UREA NITROGEN [3]: 16 mg/dL | CHLORIDE [3]: 105.67 MEQ/L | CHOLESTEROL [3]: 63 mg/dL | CREATINE PHOSPHOKINASE [3]: 139.33 u/L | CREATININE [3]: 0.6 mg/dL | GLUCOSE [3]: 171 mg/dL | PHOSPHORUS [3]: 10.3 mg/dL | POTASSIUM [3]: 6.6 MEQ/L | SODIUM [3]: 150 MEQ/L | TOTAL BILIRUBIN [3]: 0.57 mg/dL | TOTAL PROTEIN [3]: 5.97 G/DL | BASOPHIL [4]: 0% | EOSINOPHIL [4]: 0.67% | ERYTHROCYTE COUNT [4]: 6.7 x10E6/uL | HEMATOCRIT [4]: 40.67% | LEUKOCYTE COUNT [4]: 10.57 x10E3/uL | LYMPHOCYTE [4]: 75% | MEAN CORPUSCULAR HEMOGLOBIN [4]: 24.1 pg | MEAN CORPUSCULAR HEMOGLOBIN CONCENTRATION [4]: 39.7 G/DL | MEAN CORPUSCULAR VOLUME [4]: 60.77 fL | MONOCYTE [4]: 3% | NEUTROPHIL [4]: 21.33% | PLATELET COUNT [4]: 904.33 x10E3/uL | ALANINE AMINOTRANSFERASE [4]: 30.67 u/L | ALBUMIN [4]: 4.1 G/DL | ALKALINE PHOSPHATASE [4]: 352.33 u/L | ASPARTATE AMINOTRANSFERASE [4]: 64 u/L | BLOOD UREA NITROGEN [4]: 14.67 mg/dL | CHLORIDE [4]: 106 MEQ/L | CHOLESTEROL [4]: 64.33 mg/dL | CREATINE PHOSPHOKINASE [4]: 130.33 u/L | CREATININE [4]: 0.77 mg/dL | GLUCOSE [4]: 191 mg/dL | PHOSPHORUS [4]: 10.83 mg/dL | POTASSIUM [4]: 6.4 MEQ/L | SODIUM [4]: 150.67 MEQ/L | TOTAL BILIRUBIN [4]: 0.83 mg/dL | TOTAL PROTEIN [4]: 6.73 G/DL
